# Patent US11213525B2, “Linear glycosidase inhibitors” (Asceneuron SA, priority 2017, dated 2022)
# Target: His-Tagged hOGA (human O-GlcNAcase) (Homo sapiens (Human), UniProt O60502)
# Assay: Human O-GlcNAcase enzyme inhibition assay
# Type: biochemical
# Details: 20 nM His-Tagged hOGA, 10 μM FL-GlcNAc, 60 min at room temperature, pH 6.5; activity classes defined in μM; read-out: Enzymatic OGA IC50
# Description: Then, 20 nM of His-Tagged hOGA and 10 μM of FL-GlcNAc (Fluorescein mono-beta-D-(2-deoxy-2-N-acetyl) glucopyranoside; Marker Gene Technologies Inc, M1485) were added to the 384-well plate for a final volume of 20 μl.
# Sequence of His-Tagged hOGA (human O-GlcNAcase) (O60502 whole entry): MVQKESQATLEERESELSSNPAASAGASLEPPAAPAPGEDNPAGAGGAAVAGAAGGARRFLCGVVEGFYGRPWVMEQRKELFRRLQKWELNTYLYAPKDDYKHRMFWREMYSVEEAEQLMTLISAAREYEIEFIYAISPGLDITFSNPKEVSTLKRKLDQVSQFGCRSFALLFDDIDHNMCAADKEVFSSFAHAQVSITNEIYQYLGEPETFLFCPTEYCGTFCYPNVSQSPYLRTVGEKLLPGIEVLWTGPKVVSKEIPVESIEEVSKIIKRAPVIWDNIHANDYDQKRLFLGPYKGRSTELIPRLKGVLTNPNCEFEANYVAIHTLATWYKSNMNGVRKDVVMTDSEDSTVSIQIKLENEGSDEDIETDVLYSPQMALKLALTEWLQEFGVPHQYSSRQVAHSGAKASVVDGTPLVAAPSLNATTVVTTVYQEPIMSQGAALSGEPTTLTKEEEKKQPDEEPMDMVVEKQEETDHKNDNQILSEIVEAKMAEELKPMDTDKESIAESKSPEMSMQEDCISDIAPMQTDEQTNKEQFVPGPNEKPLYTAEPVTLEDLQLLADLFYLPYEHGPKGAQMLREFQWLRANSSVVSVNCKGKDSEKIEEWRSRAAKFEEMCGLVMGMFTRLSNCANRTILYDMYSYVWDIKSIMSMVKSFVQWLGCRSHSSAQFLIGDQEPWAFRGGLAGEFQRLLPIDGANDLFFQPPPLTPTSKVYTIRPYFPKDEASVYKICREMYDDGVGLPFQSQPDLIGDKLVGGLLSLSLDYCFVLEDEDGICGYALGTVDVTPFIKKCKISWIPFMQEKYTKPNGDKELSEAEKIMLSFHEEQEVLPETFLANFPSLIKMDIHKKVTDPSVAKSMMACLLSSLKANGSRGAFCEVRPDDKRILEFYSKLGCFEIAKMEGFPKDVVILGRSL
row,SMILES,IC50 [µM]
1,"CC(c1ccc2c(c1)OCC2)N1CCN(C(=O)NC2CCOC2)CC1 (racemic) [Example 18, 4-(1-(2,3-dihydrobenzofuran-6-yl)ethyl)-N-(tetrahydrofuran-3-yl)piperazine-1-carboxamide]",0.05 to 0.2
2,"CC(c1ccc2c(c1)OCO2)N1CCN(C(=O)Nc2ccccc2)CC1 (racemic) [Example 19, 4-(1-(benzo[d][1,3]dioxol-5-yl)ethyl)-N-phenylpiperazine-1-carboxamide]",0.2 to 1
3,"CC(c1ccc2c(c1)OCO2)N1CCN(C(=O)Nc2ccc(Cl)cc2)CC1 (racemic) [Example 20, 4-(1-(benzo[d][1, 3]dioxol-5-yl)ethyl)-N-(4-chlorophenyl)piperazine-1-carboxamide]",0.2 to 1
4,"CC(c1ccc2c(c1)OCC2)N1CCC(C(=O)NCc2ccc(C#N)cc2)CC1 (racemic) [Example 21, N-(4-cyanobenzyl)-1-(1-(2,3-dihydrobenzofuran-6-yl)ethyl)piperidine-4-carboxamide]",0.2 to 1
5,"CC(c1ccc2c(c1)OCC2)N1CCC(C(=O)NCc2ccc(S(C)(=O)=O)cc2)CC1 (racemic) [Example 22, 1-(1-(2,3-dihydrobenzofuran-6-yl)ethyl)-N-(4-(methylsulfonyl)benzyl)piperidine-4-carboxamide]",0.2 to 1
6,"CC(c1ccc2c(c1)OCC2)N1CCC(C(=O)NCc2ccc(C(F)(F)F)cc2)CC1 (racemic) [Example 23, 1-(1-(2,3-dihydrobenzofuran-6-yl)ethyl)-N-(4-(trifluoromethyl)benzyl)piperidine-4-carboxamide]",0.2 to 1
7,"CC(c1ccc2c(c1)OCC2)N1CCC(Nc2cccnc2)CC1 (racemic) [Example 24, N-(1-(1-(2,3-dihydrobenzofuran-6-yl)ethyl)piperidin-4-yl)pyridin-3-amine]",0.05 to 0.2
8,"CC(c1ccc2c(c1)OCC2)N1CCC(NC(=O)Cc2ccc(S(C)(=O)=O)cc2)CC1 (racemic) [Example 25, N-(1-(1-(2,3-dihydrobenzofuran-6-yl)ethyl)piperidin-4-yl)-2-(4-(methylsulfonyl)phenyl)acetamide]",< 0.05
9,"CC(c1ccc2c(c1)OCC2)N1CCC(NC(=O)Cc2ccc(C#N)cc2)CC1 (racemic) [Example 26, 2-(4-cyanophenyl)-N-(1-(1-(2,3-dihydrobenzofuran-6-yl)ethyl)piperidin-4-yl)acetamide]",0.05 to 0.2
10,"CC(c1ccc2c(c1)OCC2)N1CCC(NC(=O)Cc2ccc(C(F)(F)F)cc2)CC1 (racemic) [Example 27, N-(1-(1-(2,3-dihydrobenzofuran-6-yl)ethyl)piperidin-4-yl)-2-(4-(trifluoromethyl)phenyl)acetamide]",0.05 to 0.2
11,"COc1cc(OC2CCN(C(C)c3ccc4c(c3)OCC4)CC2)ccn1 (racemic) [Example 29, 4-((1-(1-(2,3-dihydrobenzofuran-6-yl)ethyl)piperidin-4-yl)oxy)-2-methoxypyridine]",< 0.05
12,"CC(c1ccc2c(c1)OCC2)N1CCC(Oc2ccc(S(C)(=O)=O)cn2)CC1 (racemic) [Example 30, 2-((1-(1-(2,3-dihydrobenzofuran-6-yl)ethyl)piperidin-4-yl)oxy)-5-(methylsulfonyl)pyridine]",< 0.05
13,"CC(c1ccc2c(c1)OCC2)N1CCC(Oc2cccnc2)CC1 (racemic) [Example 32, 3-((1-(1-(2,3-dihydrobenzofuran-6-yl)ethyl)piperidin-4-yl)oxy)pyridine]",< 0.05
14,"CC(c1ccc2c(c1)OCC2)N1CCC(Oc2ccc(C#N)cn2)CC1 (racemic) [Example 33, 6-((1-(1-(2,3-dihydrobenzofuran-6-yl)ethyl)piperidin-4-yl)oxy)nicotinonitrile]",< 0.05
15,"CC(c1ccc2c(c1)OCC2)N1CCC(Oc2cncnc2)CC1 (racemic) [Example 34, 5-((1-(1-(2,3-dihydrobenzofuran-6-yl)ethyl)piperidin-4-yl)oxy)pyrimidine]",0.05 to 0.2
16,"CC(c1ccc2c(c1)OCC2)N1CCC(OCc2cccnc2)CC1 (racemic) [Example 35, 3-(((1-(1-(2,3-dihydrobenzofuran-6-yl)ethyl)piperidin-4-yl)oxy)methyl)pyridine]",0.05 to 0.2
17,"CC(c1ccc2c(c1)OCC2)N1CCC(Oc2ncc(S(C)(=O)=O)cn2)CC1 (racemic) [Example 36, 2-((1-(1-(2,3-dihydrobenzofuran-6-yl)ethyl)piperidin-4-yl)oxy)-5-(methylsulfonyl)pyrimidine]",0.05 to 0.2
18,"CC(c1ccc2c(c1)OCC2)N1CCC(Oc2ncccn2)CC1 (racemic) [Example 37, 2-((1-(1-(2,3-dihydrobenzofuran-6-yl)ethyl)piperidin-4-yl)oxy)pyrimidine]",0.2 to 1
19,"CC(c1ccc2c(c1)OCC2)N1CCC(Oc2cccnn2)CC1 (racemic) [Example 38, 3-((1-(1-(2,3-dihydrobenzofuran-6-yl)ethyl)piperidin-4-yl)oxy)pyridazine]",0.2 to 1
20,"CC(c1ccc2c(c1)OCC2)N1CCC(Oc2cccnc2)CC1 (single isomer, unassigned) [Example 28]",< 0.05
21,"CC(c1ccc2scnc2c1)N1CCC(Oc2cccnc2)CC1 (single isomer, unassigned) [Example 31, (S)-5-(1-(4-(pyridin-3-yloxy)piperidin-1-yl)ethyl)benzo[d]thiazole or (R)-5-(1-(4-(pyridin-3-yloxy)piperidin-1-yl)ethyl)benzo[d]thiazole]",< 0.05
22,"CC(c1ccc2c(c1)OCC2)N1CCC(Oc2cccnc2)CC1 (single isomer, unassigned) [Example 39]",1 to 10
